Our source for the GI50 and TGI values is PubChem BioAssay (NCI).

The structures appear in SMILES notation.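 Step 1: Grow cells in 96-well plates. Step 2: Expose to compound for 48 hours at 5 concentrations. Step 3: Interpolate endpoints linearly; if unreached, use highest concentration. Abbreviation: GI50, concentration required for 50% inhibition of growth. At the TGI there is no net growth.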 Some results are limits rather than exact numbers.

Among the test systems are 786-0 renal; A498 renal; BT-549 breast; EKVX NSCLC; HCT-15 colon; NCI-H23 lung; NCI-H460 lung; OVCAR-8 ovarian; SF-268 CNS; U251 CNS.
Test in all cases: DTP human tumour cell line panel, 48 h

A word on the GI50: it is the concentration giving 50% growth inhibition. Usually TGI stands for the concentration giving total growth inhibition. Turning to `O=C1/C(=C/c2ccccc2Br)COc2ccc(O)c(O)c21`, the GI50 is 1550 nM in the assay with 786-0 renal; 1970 nM with A498 renal; 2170 nM with BT-549 breast; 2.09 µM in the assay with EKVX NSCLC; 557 nM in the assay on HCT-15 colon; 1830 nM in the assay on NCI-H23 lung. The GI50 was 2130 nM with NCI-H460 lung, 1.31 µM in the assay with OVCAR-8 ovarian, 1.6 µM with SF-268 CNS and 1090 nM in the assay with U251 CNS. Further, the TGI turned out to be 4.16 µM in the assay on 786-0 renal; 3.69 µM in the assay on A498 renal; 5.95 µM in the assay with BT-549 breast; 5.23 µM in the assay with EKVX NSCLC; 3.12 µM in the assay on HCT-15 colon; 4.17 µM in the assay with NCI-H23 lung. Further, the TGI in the assay with NCI-H460 lung was found to be 5.64 µM; in the assay on OVCAR-8 ovarian it was 12.2 µM; with SF-268 CNS, 4.23 µM; in the assay on U251 CNS, 2.33 µM.
For `N#Cc1ccc(-c2nc3ccc(Cl)cc3[nH]2)cc1`, the TGI with 786-0 renal, in the assay with BT-549 breast, in the assay on EKVX NSCLC, with HCT-15 colon, with OVCAR-8 ovarian and in the assay on U251 CNS was > 100 µM throughout.
Take `NC(=O)c1cc(Cl)ccc1NC(=O)c1ccccc1-c1ccccc1`: the GI50 in the assay with 786-0 renal was 479 nM; in the assay with A498 renal, 155 nM; with BT-549 breast, 572 nM; in the assay with HCT-15 colon, 550 nM; in the assay with NCI-H23 lung, 2010 nM; in the assay with NCI-H460 lung, 453 nM. In addition, the GI50 with OVCAR-8 ovarian is 2.81 µM; in the assay on SF-268 CNS, 5.38 µM; in the assay on U251 CNS, 650 nM. For the same molecule, the total growth inhibition concentration (TGI) is 17.9 µM in the assay on 786-0 renal; 9.78 µM in the assay with A498 renal; 52.7 µM with BT-549 breast; > 100 µM in the assay on HCT-15 colon; > 100 µM with NCI-H23 lung; 28.7 µM with NCI-H460 lung. For the same molecule, the concentration for total growth inhibition (TGI) in the assay on OVCAR-8 ovarian, with SF-268 CNS and in the assay with U251 CNS was > 100 µM throughout.
On to `C[C@@H](Oc1cc(NS(=O)(=O)N2CCC2)nc(SCc2cccc(F)c2F)n1)[C@@H](O)CO`, for which the GI50 was > 100000 nM in the assay with 786-0 renal; > 100000 nM with BT-549 breast; > 100 µM with EKVX NSCLC; > 100000 nM with HCT-15 colon; > 100000 nM in the assay on NCI-H23 lung; > 100000 nM in the assay on NCI-H460 lung. The GI50 in the assay on OVCAR-8 ovarian is > 100 µM; in the assay with SF-268 CNS, > 100 µM; in the assay with U251 CNS, > 100000 nM. The TGI with 786-0 renal, with BT-549 breast, in the assay on EKVX NSCLC, with HCT-15 colon, in the assay on NCI-H23 lung and in the assay on NCI-H460 lung was > 100 µM each time. For the same molecule, the TGI with OVCAR-8 ovarian, in the assay on SF-268 CNS and in the assay with U251 CNS was > 100 µM throughout.
In the case of `COc1cc2c(=O)n(CCCn3ccnc3)c3c4cc5c(cc4ccc3c2cc1OC)OCO5`, the GI50 in the assay on 786-0 renal is 1930 nM; with BT-549 breast it was 701 nM; in the assay with EKVX NSCLC it was 9.72 µM; in the assay with HCT-15 colon, 1170 nM; with NCI-H23 lung it was 599 nM; in the assay on NCI-H460 lung, 293 nM. In addition, the figures for the GI50 in the assay with OVCAR-8 ovarian, in the assay on SF-268 CNS and in the assay with U251 CNS were 1.46 µM, 0.448 µM and 393 nM, respectively. Further, the TGI with 786-0 renal, in the assay with BT-549 breast, in the assay with EKVX NSCLC, in the assay with HCT-15 colon, with NCI-H23 lung and in the assay with NCI-H460 lung was > 100 µM throughout. Moreover, the TGI came to 41.9 µM with OVCAR-8 ovarian, 14.9 µM in the assay with SF-268 CNS and 15.8 µM in the assay on U251 CNS.
As for `Cc1ccc2c(N/N=C\c3ccco3)cc(C)nc2n1`, the GI50 in the assay with 786-0 renal was 2250 nM; with A498 renal, 11000 nM; in the assay on BT-549 breast, 4370 nM; in the assay with HCT-15 colon, 2890 nM; in the assay with NCI-H460 lung it was 3240 nM; in the assay on OVCAR-8 ovarian it was 5.7 µM. The GI50 is 6.15 µM with SF-268 CNS and 1940 nM in the assay on U251 CNS. Moreover, the TGI in the assay with 786-0 renal amounted to 6.11 µM; with A498 renal, 23.9 µM; with BT-549 breast it was 14.9 µM; in the assay with HCT-15 colon, 12 µM; in the assay with NCI-H460 lung, 11.8 µM; with OVCAR-8 ovarian, 24 µM. For the same molecule, the TGI is 20.5 µM in the assay with SF-268 CNS and 7.06 µM with U251 CNS.
As for `Cc1ccc(C(=O)CCC2C(=O)CC(C)(C)CC2=O)cc1`, the concentration for total growth inhibition (TGI) in the assay with 786-0 renal, with BT-549 breast, with EKVX NSCLC, with HCT-15 colon, in the assay with NCI-H23 lung and in the assay with NCI-H460 lung was > 100 µM each time. For the same molecule, the concentration for total growth inhibition (TGI) with OVCAR-8 ovarian, in the assay with SF-268 CNS and with U251 CNS was > 100 µM throughout.
Turning to `CC(C)c1cccc(C(C)C)c1N=C(N)C#N`, the TGI is > 61.3 µM in the assay with 786-0 renal; > 100 µM in the assay on A498 renal; > 100 µM with EKVX NSCLC; > 58.2 µM in the assay on HCT-15 colon; > 100 µM in the assay with NCI-H23 lung; > 62.5 µM with NCI-H460 lung. The TGI is > 100 µM in the assay with OVCAR-8 ovarian, > 100 µM in the assay on SF-268 CNS and > 93.2 µM in the assay on U251 CNS.
Consider `C[Si](C)(C)/C=C\CCCN1C(=O)CCC1=O`, for which the TGI in the assay with 786-0 renal, in the assay on A498 renal, in the assay with EKVX NSCLC, with HCT-15 colon, in the assay with NCI-H23 lung and in the assay with NCI-H460 lung was > 100 µM throughout. In addition, the TGI in the assay on OVCAR-8 ovarian, with SF-268 CNS and in the assay on U251 CNS was > 100 µM throughout.
With `CCN(CC)C(=O)CNC(=O)OC(C)(C)C`, the concentration for total growth inhibition (TGI) in the assay with 786-0 renal, with A498 renal, in the assay with EKVX NSCLC, with HCT-15 colon, in the assay with NCI-H23 lung and in the assay with NCI-H460 lung was > 100 µM throughout. Besides, the TGI in the assay on OVCAR-8 ovarian, in the assay with SF-268 CNS and in the assay with U251 CNS was > 100 µM throughout.
In the case of `O=C1C(Cl)=C(Nc2cccc(O)c2)C(=O)N1c1cccc(Cl)c1`, the GI50 was 57800 nM in the assay with 786-0 renal; 27300 nM in the assay with BT-549 breast; > 100 µM in the assay on EKVX NSCLC; 39100 nM with HCT-15 colon; 37700 nM in the assay with NCI-H23 lung; 48500 nM in the assay with NCI-H460 lung. Moreover, the GI50 in the assay on OVCAR-8 ovarian is 27.2 µM; in the assay on SF-268 CNS, 28.8 µM; in the assay on U251 CNS, 57700 nM. Further, the concentration for total growth inhibition (TGI) in the assay with 786-0 renal, in the assay on BT-549 breast, in the assay on EKVX NSCLC, in the assay on HCT-15 colon, with NCI-H23 lung and with NCI-H460 lung was > 100 µM throughout. In addition, the TGI in the assay on OVCAR-8 ovarian, in the assay on SF-268 CNS and in the assay with U251 CNS was > 100 µM throughout.
On to `O=C(NC1CCN(Cc2ccccc2)CC1)c1cc(C(=O)NC2CCN(Cc3ccccc3)CC2)cc(C(=O)NC2CCN(Cc3ccccc3)CC2)c1`, for which the GI50 in the assay with 786-0 renal was 14800 nM; in the assay on BT-549 breast, 2010 nM; with HCT-15 colon it was > 50000 nM; in the assay on NCI-H23 lung it was 7780 nM; in the assay on NCI-H460 lung, 8070 nM; in the assay with OVCAR-8 ovarian it was 12.7 µM. In addition, the GI50 in the assay on SF-268 CNS was 8.25 µM; with U251 CNS, 1520 nM. Further, the TGI with 786-0 renal is > 50 µM; in the assay on BT-549 breast it was 11.4 µM; with HCT-15 colon, > 50 µM; in the assay on NCI-H23 lung, 15.7 µM; in the assay with NCI-H460 lung, 16.9 µM; in the assay with OVCAR-8 ovarian, 43.4 µM. Also, the TGI with SF-268 CNS turned out to be 18.8 µM; with U251 CNS, 5.66 µM.
For the molecule `COC1OC(CBr)C(OC(c2ccccc2)(c2ccccc2)c2ccccc2)C(OC(c2ccccc2)(c2ccccc2)c2ccccc2)C1OC(c1ccccc1)(c1ccccc1)c1ccccc1` (stereo not given), the TGI in the assay with 786-0 renal is > 100 µM; with A498 renal it was > 100 µM; in the assay on BT-549 breast, > 100 µM; in the assay on EKVX NSCLC, 70.2 µM; in the assay with HCT-15 colon it was > 100 µM; in the assay with NCI-H23 lung, > 100 µM. Moreover, the TGI with NCI-H460 lung, in the assay with OVCAR-8 ovarian and in the assay with SF-268 CNS was > 100 µM throughout.
`COc1ccc(-c2csc(NC(=O)N3CCN(c4cc5c(cc4F)c(=O)c(C(=O)O)cn5C4CC4)CC3)n2)cc1`: the GI50 in the assay with 786-0 renal is 1460 nM; with A498 renal, 2590 nM; in the assay with BT-549 breast, 616 nM; in the assay on EKVX NSCLC, 3.11 µM; in the assay with HCT-15 colon it was 2860 nM; in the assay on NCI-H460 lung, 1290 nM. Moreover, the figures for the GI50 in the assay with SF-268 CNS and in the assay on U251 CNS were 1.23 µM and 660 nM, respectively. The TGI with 786-0 renal was 19.6 µM; in the assay on A498 renal, 15.6 µM; with BT-549 breast, 6.64 µM; with EKVX NSCLC, > 100 µM; in the assay with HCT-15 colon, > 100 µM; in the assay with NCI-H460 lung, > 100 µM. Moreover, the values for the concentration for total growth inhibition (TGI) in the assay on SF-268 CNS and in the assay on U251 CNS were > 100 µM and 16.8 µM, respectively.
Regarding `O=C(O)CN(c1ccccc1)S(=O)(=O)c1ccc(Cl)cc1`, the TGI in the assay with 786-0 renal, in the assay on A498 renal, with EKVX NSCLC, with HCT-15 colon, in the assay on NCI-H23 lung and with NCI-H460 lung was > 100 µM in each case. Moreover, the TGI with OVCAR-8 ovarian, in the assay on SF-268 CNS and in the assay on U251 CNS was > 100 µM each time.
